Laboratory results as given in PubChem BioAssay AID1259411 (Chemical Carcinogenesis Research Information System (CCRIS), 2018).
Active and inactive are the calls of the source. No rule for the calls is given here. Where a SMILES comes first, the peptide text is derived from it.

Tested on: rodent carcinogenicity bioassays, tumor incidence
Test: CCRIS carcinogenicity studies
How it was run: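 Archive of carcinogenicity, mutagenicity, tumor promotion and tumor inhibition results drawn from journals, NCI reports and other sources, expert-reviewed; covers 1985-2011 and is no longer updated.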

## CC(C)Nc1nc(Cl)nc(NCC(=O)O)n1
Species: Mouse, Strain/Sex: Crl:CD-1(ICR)BR/Female, Route: Oral, Dose: 0, 10, 30, 300, 900 ppm in diet for 18 mo, Dose: 0, 10, 30, 300, 900 ppm in diet for 18 mo
  carcinogen call: inactive; negative
Species: Mouse, Strain/Sex: Crl:CD-1(ICR)BR/Male, Route: Oral, Dose: 0, 10, 30, 300, 900 ppm in diet for 18 mo, Dose: 0, 10, 30, 300, 900 ppm in diet for 18 mo, Tumor Site: Type of Lesion: Liver: Multiple hepatocellular adenomas (3/60 at 900 ppm vs. 0/60 in controls) Blood Vessels: Hemangiosarcomas (2/60 at
  carcinogen call: active; positive (only at highest dose)
Species: Rat, Strain/Sex: Crl:CD BR/Female, Route: Oral, Dose: 0, 5, 15, 30, 300, 900 ppm in diet for 24 mo, Dose: 0, 5, 15, 30, 300, 900 ppm in diet for 24 mo
  carcinogen call: inactive; negative
Species: Rat, Strain/Sex: Crl:CD BR/Male, Route: Oral, Dose: 0, 5, 15, 30, 300, 900 ppm in diet for 24 mo, Dose: 0, 5, 15, 30, 300, 900 ppm in diet for 24 mo, Tumor Site: Type of Lesion: Thyroid: Thyroid follicular cell adenoma
  carcinogen call: active; positive (at highest dose only); ca dpr describes as a possible adverse effect

## Clc1ccc(-c2cc(Cl)c(Cl)c(Cl)c2)cc1Cl
Species: RAT, Strain/Sex: SPRAGUE-DAWLEY/FEMALE, Route: GAVAGE, Dose: 0, 30, 100, 175, 300, 550, 1000 NG/KG BW 5 D/WK FOR 2 YRS, Dose: 0, 30, 100, 175, 300, 550, 1000 NG/KG BW 5 D/WK FOR 2 YRS, Tumor Site: Type of Lesion: LIVER: CHOLANGIOCARCINOMA, HEPATOCELLULAR ADENOMA OR CARCINOMA
  carcinogen call: active; positive
Species: RAT, Strain/Sex: SPRAGUE-DAWLEY/FEMALE, Route: GAVAGE, Dose: 0, 30, 100, 175, 300, 550, 1000 NG/KG BW 5 D/WK FOR 2 YRS, Dose: 0, 30, 100, 175, 300, 550, 1000 NG/KG BW 5 D/WK FOR 2 YRS, Tumor Site: Type of Lesion: LUNG: CYSTIC KERATINIZING EPITHELIOMA
  carcinogen call: active; positive
Species: RAT, Strain/Sex: SPRAGUE-DAWLEY/FEMALE, Route: GAVAGE, Dose: 0, 30, 100, 175, 300, 550, 1000 NG/KG BW 5 D/WK FOR 2 YRS, Dose: 0, 30, 100, 175, 300, 550, 1000 NG/KG BW 5 D/WK FOR 2 YRS, Tumor Site: Type of Lesion: ORAL CAVITY: SQUAMOUS CELL CARCINOMA
  carcinogen call: active; positive
Species: RAT, Strain/Sex: SPRAGUE-DAWLEY/FEMALE, Route: GAVAGE, Dose: 1000 NG/KG BW 5 D/WK FOR 30 WKS (STUDY DURATION: 2 YRS)
  carcinogen call: inactive; negative
Species: RAT, Strain/Sex: SPRAGUE-DAWLEY/FEMALE, Route: ORAL, Dose: 0, 30, 100, 175, 300, 550, 1000 NG/KG/D (STUDY DURATION: 2 YRS), Dose: 0, 30, 100, 175, 300, 550, 1000 NG/KG/D (STUDY DURATION: 2 YRS), Tumor Site: Type of Lesion: ORAL MUCOSA: SQUAMOUS CELL CARCINOMA
  carcinogen call: active; positive; highest dose only

## OCC(Br)CBr (stereo not given)
Species: MOUSE, Strain/Sex: B6C3F1/FEMALE, Route: DERMAL, Dose: 0, 188, 375 MG/KG IN ETHANOL APPLIED TO SUBSCAPULAR SKIN 5 D/WK FOR 39-42 WK (STUDY DURATION: 42 WK), Dose: 0, 188, 375 MG/KG IN ETHANOL APPLIED TO SUBSCAPULAR SKIN 5 D/WK FOR 39-42 WK (STUDY DURATION: 42 WK), Tumor Site: Type of Lesion: SKIN: SQUAMOUS CELL PAPILLOMA, FORESTOMACH: SQUAMOUS CELL PAPILLOMA, SQUAMOUS CELL CARCINOMA
  carcinogen call: active; positive
Species: MOUSE, Strain/Sex: B6C3F1/MALE, Route: DERMAL, Dose: 0, 188, 375 MG/KG IN ETHANOL APPLIED TO SUBSCAPULAR SKIN 5 D/WK FOR 36-39 WK (STUDY DURATION: 42 WK), Dose: 0, 188, 375 MG/KG IN ETHANOL APPLIED TO SUBSCAPULAR SKIN 5 D/WK FOR 36-39 WK (STUDY DURATION: 42 WK), Tumor Site: Type of Lesion: SKIN: SQUAMOUS CELL PAPILLOMA, FORESTOMACH: SQUAMOUS CELL PAPILLOMA, LUNG: ALVEOLAR/BRONCHIOLAR ADENOMA, LIVER: HEPATOCE, Tumor Site: Type of Lesion: SKIN: SQUAMOUS CELL PAPILLOMA, FORESTOMACH: SQUAMOUS CELL PAPILLOMA, LUNG: ALVEOLAR/BRONCHIOLAR ADENOMA, LIVER: HEPATOCE
  carcinogen call: active; positive
Species: RAT, Strain/Sex: F344/FEMALE, Route: DERMAL, Dose: 0, 188, 375 MG/KG IN ETHANOL APPLIED TO SUBSCAPULAR SKIN 5 D/WK FOR 52-55 WK (STUDY DURATION: 56 WK), Dose: 0, 188, 375 MG/KG IN ETHANOL APPLIED TO SUBSCAPULAR SKIN 5 D/WK FOR 52-55 WK (STUDY DURATION: 56 WK), Tumor Site: Type of Lesion: SKIN: SQUAMOUS CELL PAPILLOMA OR CARCINOMA, BASAL CELL TUMOR, KERATOACANTHOMA, ORAL MUCOSA: SQUAMOUS CELL PAPILLOMA, SQU
  carcinogen call: active; positive
Species: RAT, Strain/Sex: F344/MALE, Route: DERMAL, Dose: 0, 188, 375 MG/KG IN ETHANOL APPLIED TO SUBSCAPULAR SKIN 5 D/WK FOR 48-51 WK (STUDY DURATION: 56 WK), Dose: 0, 188, 375 MG/KG IN ETHANOL APPLIED TO SUBSCAPULAR SKIN 5 D/WK FOR 48-51 WK (STUDY DURATION: 56 WK), Tumor Site: Type of Lesion: SKIN: SQUAMOUS CELL PAPILLOMA OR CARCINOMA, BASAL CELL TUMOR, SEBACEOUS ADENOMA, KERATOACANTHOMA, ORAL MUCOSA: SQUAMOUS
  carcinogen call: active; positive

## C[C@@H]1C[C@H](C)CN(S(=O)(=O)c2ccc(Cl)c(C(=O)O)c2)C1
Species: RAT, Strain/Sex: F344/MALE, Route: ORAL, Dose: 0.2% IN DIET FOR 7.5 MO, THEN 0.1% FOR 4 MO, THEN 0.05% FOR 4 MO, Tumor Site: Type of Lesion: LIVER: HEPATOCELLULAR CARCINOMA
  carcinogen call: active; positive

## Nc1nc2ncc(CNc3ccc(C(=O)N(N=O)[C@@H](CCC(=O)O)C(=O)O)cc3)nc2c(=O)[nH]1
Species: RAT, Route: ORAL, Tumor Site: Type of Lesion: LIVER
  carcinogen call: active; positive

## COC(=O)c1c(Cl)c(Cl)c(C(=O)OC)c(Cl)c1Cl
Species: Mouse, Strain/Sex: CD-1/Female (60/group), Route: Oral, Dose: 0, 100, 1,000, 3,500, 7,500 ppm in diet for 2 yr, Dose: 0, 100, 1,000, 3,500, 7,500 ppm in diet for 2 yr, Tumor Site: Type of Lesion: Liver: Hepatocellular tumors (Significant only at highest dose)
  carcinogen call: active; positive (study details not given in source; purity 96.7%)
Species: Mouse, Strain/Sex: CD-1/Male (60/group), Route: Oral, Dose: 0, 100, 1,000, 3,500, 7,500 ppm in diet for 2 yr, Dose: 0, 100, 1,000, 3,500, 7,500 ppm in diet for 2 yr
  carcinogen call: inactive; negative (study details not given in source; purity 96.7%)
Species: Rat, Strain/Sex: Sprague-Dawley/Female (60/group), Route: Oral, Dose: 0, 1, 10, 50, 500, 1,000 mg/kg/day in diet for 2 yr, Dose: 0, 1, 10, 50, 500, 1,000 mg/kg/day in diet for 2 yr, Tumor Site: Type of Lesion: Thyroid: Follicular cell adenomas. Liver: Hepatocellular tumors
  carcinogen call: active; positive (as evaluated by ca dpr; study details not given in source; purity 97.7
Species: Rat, Strain/Sex: Sprague-Dawley/Male (60/group), Route: Oral, Dose: 0, 1, 10, 50, 500, 1,000 mg/kg/day in diet for 2 yr, Dose: 0, 1, 10, 50, 500, 1,000 mg/kg/day in diet for 2 yr, Tumor Site: Type of Lesion: Thyroid: Follicular cell adenomas
  carcinogen call: active; positive (evaluated as adverse effect by ca dpr; study details not given in sour

## Nc1ccccc1C(=O)OC/C=C/c1ccccc1
Species: MOUSE, Strain/Sex: B6C3F1/FEMALE, Route: ORAL, Dose: 0, 15000, 30000 PPM IN DIET FOR 103 WK (STUDY DURATION: 105-107 WK), Dose: 0, 15000, 30000 PPM IN DIET FOR 103 WK (STUDY DURATION: 105-107 WK), Tumor Site: Type of Lesion: LIVER: HEPATOCELLULAR ADENOMA OR CARCINOMA
  carcinogen call: active; positive
Species: MOUSE, Strain/Sex: B6C3F1/MALE, Route: ORAL, Dose: 0, 15000, 30000 PPM IN DIET FOR 103 WK (STUDY DURATION: 105-107), Dose: 0, 15000, 30000 PPM IN DIET FOR 103 WK (STUDY DURATION: 105-107), Tumor Site: Type of Lesion: LIVER: HEPATOCELLULAR ADENOMA OR CARCINOMA
  carcinogen call: active; positive
Species: RAT, Strain/Sex: F344/FEMALE, Route: ORAL, Dose: 0, 15000, 30000 PPM IN DIET FOR 103 WK (STUDY DURATION: 105-107 WK), Dose: 0, 15000, 30000 PPM IN DIET FOR 103 WK (STUDY DURATION: 105-107 WK)
  carcinogen call: inactive; negative
Species: RAT, Strain/Sex: F344/MALE, Route: ORAL, Dose: 0, 15000, 30000 PPM IN DIET FOR 103 WK (STUDY DURATION: 105-107), Dose: 0, 15000, 30000 PPM IN DIET FOR 103 WK (STUDY DURATION: 105-107), Tumor Site: Type of Lesion: PANCREAS: ACINAR CELL ADENOMA OR CARCINOMA, KIDNEY (CORTEX): ADENOMA OR ADENOCARCINOMA (NOS)
  carcinogen call: active; positive

## COC(=O)[C@H](Cc1ccccc1)NC(=O)[C@@H](N)CC(=O)O (H-Asp-Phe-OMe)
Species: MOUSE, Strain/Sex: SWISS/FEMALE, Route: INTRAVESICULAR, Dose: 0, 4-4.4 MG IN CHOLESTEROL PELLET (STUDY DURATION: 26 WK)
  carcinogen call: inactive; negative
Species: MOUSE, Strain/Sex: SWISS/FEMALE, Route: INTRAVESICULAR, Dose: 0, 4-4.4 MG IN CHOLESTEROL PELLET (STUDY DURATION: 56 WK)
  carcinogen call: inactive; negative
